The results in this text go back to patent publication US20190083563A1 (priority 2014, published 2019).

For one data set, the system named is influenza A virus H1N1. Put plainly: microbe, parasite or virus in culture. In kind it is cell-based.
For a further data set, the system named is influenza A virus H5N1. Briefly: microbe, parasite or virus in culture. It counts as cell-based.
The subject of data set [1] is influenza virus H1N1. Briefly: Investigation on cell binding of influenza virus (virus and sample mixed, 4° C., MTT cell viability). In kind it is cell-based, influenza A virus.
Another data set can be described thus: in vitro. The note with it: dog.
The subject of the next data set is influenza B virus. Put plainly: microbe, parasite or virus in culture. It counts as cell-based.
Data set [2] deals with influenza virus H1N1. In kind it is cell-based, influenza A virus.
The next data set has as its system influenza A virus H3N2. Briefly: microbe, parasite or virus in culture. It counts as cell-based.

In brackets after ≈: the same amount, converted by molar mass.

`CCOC(=O)C1=C[C@@H](OC(CC)CC)[C@H](NC(C)=O)[C@@H](N)C1` [Tamiflu]: in the data set on influenza A virus H1N1, the “observing the cells by a microscope, post-treatment” value is “many cells were infected and dead”. In addition, the SI worked out at 317 in the data set on influenza A virus H1N1 (H1N1, CC50 value divided by the EC50 value); 740 in the data set with influenza A virus H5N1 (H5N1, CC50 value divided by the EC50 value); 81 with influenza B virus (CC50 value divided by the EC50 value); 317 in the data set on influenza A virus H3N2 (H3N2, CC50 value divided by the EC50 value). In addition, the EC50 (as a rule, the midpoint of the concentration-response curve) was found to be 3.5 µg/mL (≈ 11.2 µM) in the data set on influenza A virus H1N1 (Influenza A virus, H1N1, MDCK cells, post-treatment, 48 hours); 1.5 µg/mL (≈ 4.8 µM) in the data set on influenza A virus H5N1 (Influenza A virus, H5N1, MDCK, 48 h); 13.7 µg/mL (≈ 43.9 µM) in the data set with influenza B virus (MDCK cells, post-treatment, 48 hours); 3.5 µg/mL (≈ 11.2 µM) in the data set on influenza A virus H3N2 (Influenza A virus, H3N2, MDCK cells, post-treatment, 48 hours). The “antiviral effect in virus binding test” value in the data set with influenza virus H1N1 [1] was “no antiviral effect”. Further, in the data set “in vitro”, the CC50 was found to be 1110 µg/mL (≈ 3560 µM). The “CPE of cells, virus preventive effect” value in the data set on influenza virus H1N1 [2] is on record as “all the cells treated with Tamiflu were dead”. Also, the “observing the cells using a microscope, virus preventive effect” value with influenza virus H1N1 [2] was “infected cell state”.
